Reference: patent US11613533B2, “Compounds useful for inhibiting RET kinase” (Eli Lilly and Company, priority 2020, dated 2023)
Positions count from the first letter of the chain named.

Tests used:
Assay type in all cases: biochemical
[1] = molecular target: T1, G810S mutant RET kinase (N-Terminal GST-tagged recombinant human G810S, aa-658-end) (Homo sapiens, UniProt P07949, G810S); assay: RET enzyme assay (HTRF KinEASE TK), G810S; conditions: 1 mM ATP, 60 min incubation at 22° C.
T1 construct: recombinant human G810S (aa-658-end); GST (N); made in house; host or cells: insect cells
T1 sequence (P07949 658-1114 G810S limits assumed): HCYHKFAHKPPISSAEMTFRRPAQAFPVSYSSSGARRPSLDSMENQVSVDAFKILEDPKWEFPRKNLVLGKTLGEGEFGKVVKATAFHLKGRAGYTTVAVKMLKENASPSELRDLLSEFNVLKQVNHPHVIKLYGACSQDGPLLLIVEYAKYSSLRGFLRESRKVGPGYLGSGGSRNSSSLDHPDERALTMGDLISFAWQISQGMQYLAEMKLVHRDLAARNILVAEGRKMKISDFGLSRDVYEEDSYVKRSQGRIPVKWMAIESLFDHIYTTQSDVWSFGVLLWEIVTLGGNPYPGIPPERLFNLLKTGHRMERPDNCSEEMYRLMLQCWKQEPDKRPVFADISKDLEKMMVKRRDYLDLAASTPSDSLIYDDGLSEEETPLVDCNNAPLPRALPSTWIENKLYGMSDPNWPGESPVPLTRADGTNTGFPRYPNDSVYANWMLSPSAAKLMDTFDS
Experimental: (§1) Assay A: RET Enzyme Assay
(§2) Compounds of formulas I, II, or III are screened for their ability to inhibit wildtype, V804M, and G810S mutant RET kinase using CisBio's HTRF® KinEASE™TK assay technology. N-terminal GST tagged recombinant human RET cytoplasmic domain (aa 658-end) from Eurofins ([…]; Catalog No. 14-570M) or N-terminal GST tagged recombinant human V804M mutant RET cytoplasmic domain (aa 658-end) from Millipore (1.25 nM enzyme; Catalog No. 14-760) or N-Terminal GST-tagged recombinant human G810S (aa-658-end) (1.25 nM Enzyme; produced in insect cells) is incubated with 62.5 nM TK-substrate biotin (CisBio, part of Catalog No. 62TK0PEC) and 1 mM ATP along with test compound (0.4% final DMSO in the assay) in a 1× Cisbio enzymatic buffer consisting of […], 5 mM MgCl2, 0.04% BSA and 0.05% Tween20 in a volume of 10 μL. Compounds are typically prepared in a threefold serial dilution in DMSO and added to the assay to give the appropriate final concentration. After a 40-60 min (40 min for V804M, 60 min for WT and G810S) incubation at 22° C., the reaction is quenched by adding quench solution (10 μL) containing 7.8 nM Streptavidine-XL665 and 0.5×TK-ab-Cryptate in HTRF detection buffer (all from CisBio, part of Cat. No. 62TK0PEC). After a 60-80 min incubation (60 minutes for WT, 80 minutes for V804M and G810S) at 22° C., the extent of reaction is determined using a PHERastar plate reader via HTRF detection at excitation/emission 337/665 nm. Percent of inhibition is calculated with 0% inhibition referring to control conditions containing no compound (0.4% DMSO only) and 100% inhibition represented by conditions containing no enzyme. The % inhibition values are fit to a 4 parameter logistic curve, and the determined IC50 value is defined as the estimated concentration of inhibitor at the inflexion point of the fitted curve.

[2] = molecular target: T2, V804M mutant RET kinase (N-terminal GST tagged recombinant human V804M mutant RET cytoplasmic domain, aa 658-end) (Homo sapiens, UniProt P07949, V804M); assay: RET enzyme assay (HTRF KinEASE TK), V804M; conditions: 1 mM ATP, 40 min incubation at 22° C.
T2 construct: human V804M mutant RET cytoplasmic domain (aa 658-end); GST (N); purchased Millipore 14-760
T2 sequence (P07949 658-1114 V804M limits assumed): T1 sequence (P07949 658-1114 G810S limits assumed) with V147M, S153G
Experimental: as §1, §2

[3] = molecular target: T3, wildtype RET kinase (N-terminal GST tagged recombinant human RET cytoplasmic domain, aa 658-end) (Homo sapiens, UniProt P07949); assay: RET enzyme assay (HTRF KinEASE TK), wildtype; conditions: 1 mM ATP, 60 min incubation at 22° C.
T3 construct: human RET cytoplasmic domain (aa 658-end); GST (N); purchased Eurofins 14-570M
T3 sequence (P07949 658-1114 limits assumed): T1 sequence (P07949 658-1114 G810S limits assumed) with S153G
Experimental: as §1, §2

Measured: IC50

CC(C(=O)Nc1cc(CC(C)(C)C)no1)c1ccc(-c2nn(C(C)C)c(N)c2C(N)=O)cc1 (single isomer, unassigned; isomer 1) [Example 1, 5-Amino-3-[4-(1-[[3-(2,2-dimethylpropyl)-1,2-oxazol-5-yl]carbamoyl]ethyl)phenyl]-1-isopropylpyrazole-4-carboxamide, Isomer 1]
< 100 nM: all assays above

CCC(C)(C)c1cc(NC(=O)C(C)c2ccc(-c3nn(C(C)C)c(N)c3C(N)=O)cc2)on1 (single isomer, unassigned; isomer 1) [Example 15, 5-Amino-1-isopropyl-3-[4-(1-[[3-(2-methylbutan-2-yl)-1,2-oxazol-5-yl]carbamoyl]ethyl)phenyl]pyrazole-4-carboxamide, Isomer 1]
< 100 nM: all assays above

CC(C(=O)Nc1cc(C(C)(C)C(F)(F)F)no1)c1ccc(-c2nn(C(C)C)c(N)c2C(N)=O)cc1 (single isomer, unassigned; isomer 1) [Example 17, 5-Amino-1-isopropyl-3-[4-(1-[[3-(1,1,1-trifluoro-2-methylpropan-2-yl)-1,2-oxazol-5-yl]carbamoyl]ethyl)phenyl]pyrazole-4-carboxamide, Isomer 1]
< 100 nM: all assays above

CC(C(=O)Nc1cc(C2(C)CC2)no1)c1ccc(-c2nn(C(C)C)c(N)c2C(N)=O)cc1 (single isomer, unassigned; isomer 1) [Example 35, 5-Amino-1-isopropyl-3-[4-(1-[[3-(1-methylcyclopropyl)-1,2-oxazol-5-yl]carbamoyl]ethyl)phenyl]pyrazole-4-carboxamide, Isomer 1]
< 100 nM: all assays above

CC(C(=O)Nc1cc(-c2ccc(Cl)cc2Cl)no1)c1ccc(-c2nn(C(C)C)c(N)c2C(N)=O)cc1 (single isomer, unassigned; isomer 1) [Example 45, 5-Amino-3-[4-(1-[[3-(2,4-dichlorophenyl)-1,2-oxazol-5-yl]carbamoyl]ethyl)phenyl]-1-isopropylpyrazole-4-carboxamide, Isomer 1]
< 100 nM: all assays above

CC(C(=O)Nc1cc(C(C)(C)C(F)(F)F)on1)c1ccc(-c2nn(C(C)C)c(N)c2C(N)=O)cc1 (single isomer, unassigned; isomer 1) [Example 81, 5-Amino-1-isopropyl-3-[4-(1-[[5-(1,1,1-trifluoro-2-methylpropan-2-yl)-1,2-oxazol-3-yl]carbamoyl]ethyl)phenyl]pyrazole-4-carboxamide, Isomer 1]
< 100 nM: all assays above

CC(C(=O)Nc1cc(C2CC(C)(C)C2)no1)c1ccc(-c2nn(C(C)C)c(N)c2C(N)=O)cc1 (single isomer, unassigned; isomer 1) [Example 98, 5-Amino-3-[4-[2-[[3-(3,3-dimethylcyclobutyl)isoxazol-5-yl]amino]-1-methyl-2-oxo-ethyl]phenyl]-1-isopropyl-pyrazole-4-carboxamide, Isomer 1]
< 100 nM: all assays above

CCC(C)(C)c1cc(NC(=O)C(C)c2ccc(-c3nn(C(C)C)c(N)c3C(N)=O)cc2)no1 (single isomer, unassigned; isomer 2) [Example 52, 5-Amino-1-isopropyl-3-[4-(1-[[5-(2-methylbutan-2-yl)-1,2-oxazol-3-yl]carbamoyl]ethyl)phenyl]pyrazole-4-carboxamide, Isomer 2]
< 100 nM: all assays above

CC(C(=O)Nc1cc(C(C)(C)C(F)(F)F)on1)c1ccc(-c2nn(C(C)C)c(N)c2C(N)=O)nc1 (single isomer, unassigned; isomer 2) [Example 64, 5-Amino-1-isopropyl-3-[5-(1-[[5-(1,1,1-trifluoro-yl)-1,2-oxazol-3-2-methylpropan-2-yl]carbamoyl]ethyl)pyridin-2-yl]pyrazole-4-carboxamide, Isomer 2]
< 100 nM: all assays above

CCC(C)(C)c1cc(NC(=O)C(C)c2ccc(-c3nn(C(C)C)c(N)c3C(N)=O)nc2)no1 (single isomer, unassigned; isomer 2) [Example 66, 5-Amino-1-isopropyl-3-[5-(1-[[5-(2-methylbutan-2-yl)-1,2-oxazol-3-yl]carbamoyl]ethyl)pyridin-2-yl]pyrazole-4-carboxamide, Isomer 2]
< 100 nM: all assays above

CC(C(=O)Nc1cc(C(C)(C)CC(F)(F)F)on1)c1ccc(-c2nn(C(C)C)c(N)c2C(N)=O)nc1 (single isomer, unassigned; isomer 2) [Example 68, 5-Amino-1-isopropyl-3-(5-(1-oxo-1-((5-(4,4,4-trifluoro-2-methylbutan-2-yl)isoxazol-3-yl)amino)propan-2-yl)pyridin-2-yl)-1H-pyrazole-4-carboxamide, Isomer 2]
< 100 nM: all assays above

CC(C(=O)Nc1cc(C(C)(C)C(C)(F)F)on1)c1ccc(-c2nn(C(C)C)c(N)c2C(N)=O)nc1 (single isomer, unassigned; isomer 2) [Example 70, 5-Amino-3-[5-(1-[[5-(3,3-difluoro-2-methylbutan-2-yl)-1,2-oxazol-3-yl]carbamoyl]ethyl)pyridin-2-yl]-1-isopropylpyrazole-4-carboxamide, Isomer 2]
< 100 nM: all assays above

CC(C(=O)Nc1cc(C(C)(C)C(C)(F)F)on1)c1ccc(-c2nn(C(C)C)c(N)c2C(N)=O)cc1 (single isomer, unassigned; isomer 2) [Example 76, 5-Amino-3-[4-(1-[[5-(3,3-difluoro-2-methylbutan-2-yl)-1,2-oxazol-3-yl]carbamoyl]ethyl)phenyl]-1-isopropylpyrazole-4-carboxamide, Isomer 2]
< 100 nM: all assays above
